Values after ≈ are worked out from the molar mass of the structure shown. Where two headings read alike, the source gives them in different places.
Columns and labels:
guinea-pig gallbladder = test: Anti-CCK activity on guinea-pig gallbladders in vitro (contraction by CCK-8); details: for IC50: Cavia porcellus, CCK-8 10 ng/ml, in vitro
Method: ANTI-CCK ACTIVITY ON GUINEA-PIG GALLBLADDERS IN VITRO A longitudinal strip of guinea-pig gallbladder is placed in a bath for isolated organs in Krebs at a temperature of 32° C. and oxygenated continuously with an oxygen-CO2 mixture (95-[…]). The isometric contractions were detected by means of a force transducer and recorded. […] The results obtained are shown in Table 3 which gives the compounds tested and the IC50 values found which were calculated by the method of regression in a test of at least three experiments for each compound studied.

guinea pig gall bladders = test: Anti-CCK-8 activity on guinea-pig gallbladders in situ (in vivo); details: Cavia porcellus, iv; CCK-8 10 ng/kg i.v.; compound i.v.; read-out: ID50, anti-CCK-8 activity in situ
Method: In order to confirm the evidence of the studies in vitro, several of the more interesting compounds were tested in vivo with the use of guinea-pig gallbladders in situ.
The method used was that described by Ljungberg (Svensk. Farm. Tidskr. 69, 351-354, 1964).
Guinea-pigs having a weight of about 400 g anaesthetised with urethane were used; the substances being tested were administered intravenously (i.v.) into the jugular vein.
The responses of the gallbladder to the substances being tested were detected by means of a force transducer and recorded by means of a microdynamometer. 10 ng/kg of CCK 8 were chosen as the optimum contracting dose. The antagonistic compounds tested were administered in increasing doses so as to enable the calculation of an ID50 value, that is the dose (in mg/kg i.v.) having a 50% inhibiting effect against contractions induced by 10 ng/kg i.v. of CCK-8.

digestive tract = test: Antispastic activity, vegetable carbon test (speed of transit through stomach and intestine) in mice; format: in vivo; details: Mus musculus, ip, read-out: A[…] ED50 (dose which reduces the intestinal transit time of the carbon by 50%), intraperitoneally
Excerpt: The anti-spastic activity which the present compounds exert on the whole of the digestive tract is also considerable. Measured in mice with the vegetable carbon test (speed of transit through the stomach and intestine) this activity is illustrated in the following table: […]

in vivo = details: mouse, iv
[1] = tested on: pancreatitis in mice induced experimentally by cerulein; test: Pancreatitis induced by cerulein in mice; format: in vivo; details: for ED50: Mus musculus, ip, cerulein, mice
Method: Adult male mice received six injections of cerulein (Takus) (50 mcg/kg) each hour for six hours.
The compound was administered 30 minutes before each administration of cerulein. Nine hours after the beginning of the treatment, the blood was taken from the rectro-orbitory plexus after anaesthesia with ether, the animals were killed and the pancreas removed and weighed.

colon of rabbits = test: Antispastic activity in the colon of rabbits stimulated with CCK-8; format: in vivo, rabbit; set-up: Antispastic activity in colon, EXPERIMENT 1 / Antispastic activity in colon, EXPERIMENT 2: unit not given here; details: CCK 100 ng/kg
Method: The abdomen of anaesthetised rabbit is cut open to display the tranverse colon. A small balloon full of water is inserted at an established point and connected to a pressure transducer by means of a polyethylene cannula filled with H2 O.
The optimum sensitivity being fixed in relation to the physiological contractions, the products were administered through the femeral vein. Contractions were induced by the administration of 100 ng/kg of CCK.

[2] = tested on: pancreatitis in rats induced experimentally by taurocholate; test: Pancreatitis induced by sodium taurocolate in rats; format: in vivo; details: for ED50: Rattus norvegicus, ip, taurocholate, rats
Method: The products under examination were administered intraperitoneally (i.p.) 30 minutes before the operation and 3 hours after the operation. Six hours after the laparatomy the blood was removed from the retro-orbitory plexus after anaesthesia with ether, the animals were killed and the pancreas was removed and weighed. The activity of the serum amylase was determined by the method described above.

CCCCCN(CCCOCC)C(=O)C(CCC(=O)O)NC(=O)c1ccc(Cl)c(Cl)c1 (stereo not shown) [Compound 3]
IC50 (guinea-pig gallbladder): 0.6 µg/mL (≈ 1.26 µM)
ED50 (guinea pig gall bladders): 0.75 mg/kg
ED50 (digestive tract): 25 mg/kg
LD50 (in vivo): 298 mg/kg
selectivity ratio (in vivo): 397

CCCCCN(CCCOC(C)C)C(=O)C(CCC(=O)O)NC(=O)c1ccc(Cl)c(Cl)c1 (stereo not shown) [Compound 4]
IC50 (guinea-pig gallbladder): 3 µg/mL (≈ 6.13 µM)
ED50 (guinea pig gall bladders): 5.08 mg/kg

CCCCCN(CCOC)C(=O)C(CCC(=O)O)NC(=O)c1ccc(Cl)c(Cl)c1 (stereo not shown) [Compound 5]
IC50 (guinea-pig gallbladder): 0.8 µg/mL (≈ 1.79 µM)
ED50 (guinea pig gall bladders): 0.68 mg/kg
ED50 (digestive tract): 20.8 mg/kg
LD50 (in vivo): 485 mg/kg
selectivity ratio (in vivo): 713

CCCCCN(CCCO)C(=O)C(CCC(=O)O)NC(=O)c1ccc(Cl)c(Cl)c1 (stereo not shown) [Compound 6]
IC50 (guinea-pig gallbladder): 0.3 µg/mL (≈ 0.671 µM)
ED50 (guinea pig gall bladders): 8.4 mg/kg

CCCCCN(CCCOC)C(=O)C(CCC(=O)O)NC(=O)c1ccc(C)c(C)c1 (stereo not shown) [Compound 7]
IC50 (guinea-pig gallbladder): 0.9 µg/mL (≈ 2.14 µM)
ED50 (guinea pig gall bladders): 0.65 mg/kg
ED50 (digestive tract): 33.9 mg/kg
LD50 (in vivo): 440 mg/kg
selectivity ratio (in vivo): 677

CCCCCN(CCOCC)C(=O)C(CCC(=O)O)NC(=O)c1ccc(C)c(C)c1 (stereo not shown) [Compound 8]
IC50 (guinea-pig gallbladder): 1.1 µg/mL (≈ 2.62 µM)
ED50 (guinea pig gall bladders): 2.02 mg/kg

CCCCCN(CCCOC)C(=O)C(CCC(=O)O)NC(=O)c1ccc(C)cc1 (stereo not shown) [Compound 9]
IC50 (guinea-pig gallbladder): 4 µg/mL (≈ 9.84 µM)
ED50 (guinea pig gall bladders): 3.85 mg/kg

CCCCCN(CCCOC)C(=O)C(CCC(=O)O)NC(=O)c1cccc(C)c1 (stereo not shown) [Compound 10]
IC50 (guinea-pig gallbladder): 4.1 µg/mL (≈ 10.1 µM)
ED50 (guinea pig gall bladders): 3.66 mg/kg

CCCCCN(CCCOC)C(=O)C(CCC(=O)O)NC(=O)c1ccc(Cl)cc1 (stereo not shown) [Compound 11]
IC50 (guinea-pig gallbladder): 2.6 µg/mL (≈ 6.09 µM)
ED50 (guinea pig gall bladders): 3.25 mg/kg

CCCCCN(CCOCC)C(=O)C(CCC(=O)O)NC(=O)c1ccc(Cl)cc1 (stereo not shown) [Compound 12]
IC50 (guinea-pig gallbladder): 2.9 µg/mL (≈ 6.79 µM)
ED50 (guinea pig gall bladders): 4.44 mg/kg

CCCCCN(CCCOC)C(=O)C(CCC(=O)O)NC(=O)c1cccc(Cl)c1 (stereo not shown) [Compound 13]
IC50 (guinea-pig gallbladder): 8.9 µg/mL (≈ 20.8 µM)
ED50 (guinea pig gall bladders): 6.7 mg/kg

CCCCCN(CCCOC)C(=O)C(CCC(=O)O)NC(=O)c1ccc(F)c(F)c1 (stereo not shown) [Compound 14]
IC50 (guinea-pig gallbladder): 0.8 µg/mL (≈ 1.87 µM)
ED50 (guinea pig gall bladders): 1.1 mg/kg
LD50 (in vivo): 425 mg/kg
selectivity ratio (in vivo): 386

COCCCN(CCCC(C)C)C(=O)C(CCC(=O)O)NC(=O)c1ccc(Cl)c(Cl)c1 (stereo not shown) [Compound 15]
IC50 (guinea-pig gallbladder): 0.7 µg/mL (≈ 1.47 µM)
ED50 (guinea pig gall bladders): 0.84 mg/kg
ED50 (digestive tract): 44.2 mg/kg
LD50 (in vivo): 288 mg/kg
selectivity ratio (in vivo): 343

CCCCN(CCCOC)C(=O)C(CCC(=O)O)NC(=O)c1ccc(Cl)c(Cl)c1 (stereo not shown) [Compound 16]
IC50 (guinea-pig gallbladder): 1.5 µg/mL (≈ 3.35 µM)
ED50 (guinea pig gall bladders): 2.08 mg/kg

CCCCCCN(CCCOC)C(=O)C(CCC(=O)O)NC(=O)c1ccc(Cl)c(Cl)c1 (stereo not shown) [Compound 17]
IC50 (guinea-pig gallbladder): 1.6 µg/mL (≈ 3.37 µM)
ED50 (guinea pig gall bladders): 3.25 mg/kg

COCCCN(CCCC(C)(C)C)C(=O)C(CCC(=O)O)NC(=O)c1ccc(Cl)c(Cl)c1 (stereo not shown) [Compound 18]
IC50 (guinea-pig gallbladder): 4.8 µg/mL (≈ 9.81 µM)
ED50 (guinea pig gall bladders): 6.79 mg/kg

COCCCN(CCC(C)C)C(=O)C(CCC(=O)O)NC(=O)c1ccc(Cl)c(Cl)c1 (stereo not shown) [Compound 19]
IC50 (guinea-pig gallbladder): 0.6 µg/mL (≈ 1.3 µM)
ED50 (guinea pig gall bladders): 0.74 mg/kg
ED50 (digestive tract): 18.5 mg/kg
LD50 (in vivo): 297 mg/kg
selectivity ratio (in vivo): 401

CCCCCN(CCCOC)C(=O)C(CC(=O)O)NC(=O)c1ccc(Cl)c(Cl)c1 (stereo not shown) [Compound 20]
IC50 (guinea-pig gallbladder): 0.9 µg/mL (≈ 2.01 µM)
ED50 (guinea pig gall bladders): 0.84 mg/kg
ED50 (digestive tract): 27.9 mg/kg
LD50 (in vivo): 362 mg/kg
selectivity ratio (in vivo): 431

CCCCCN(CCCOC)C(=O)C(CC(=O)O)NC(=O)c1ccc(C)c(C)c1 (stereo not shown) [Compound 21]
IC50 (guinea-pig gallbladder): 4.7 µg/mL (≈ 11.6 µM)
ED50 (guinea pig gall bladders): 3.69 mg/kg

CCCN(CCC)C(=O)C(CCC(=O)O)NC(=O)c1ccccc1 (stereo not shown) [Proglumide, reference compound]
IC50 (guinea-pig gallbladder): 340 µg/mL (≈ 1020 µM)
activity less than that of the most active compound in the invention (guinea-pig gallbladder; in vitro gallbladder): about 3000 times less
AMYLASE IN THE SERUM ([1]; 200 mg/kg ip + cerulein): 48.2 U/ml
INHIBITION OF WEIGHT INCREASE ([1]; 200 mg/kg ip + cerulein): 53.4%
INHIBITION OF WEIGHT INCREASE (pancreas) ([1]; 200 mg/kg ip + cerulein): 38.1%
RATIO WEIGHT OF PANCREAS / ANIMAL WEIGHT ([1]; 200 mg/kg ip + cerulein): 0.47%
AMYLASE IN THE SERUM ([1]; 400 mg/kg ip + cerulein): 26.2 U/ml
INHIBITION OF WEIGHT INCREASE ([1]; 400 mg/kg ip + cerulein): 80.9%
INHIBITION OF WEIGHT INCREASE (pancreas) ([1]; 400 mg/kg ip + cerulein): 85.7%
RATIO WEIGHT OF PANCREAS / ANIMAL WEIGHT ([1]; 400 mg/kg ip + cerulein): 0.37%
ED50 ([1]; read-out: ED50 (inhibition of weight increase)): 226 mg/kg
ED50 ([1]; read-out: ED50, inhibition of weight increase of the pancreas): 241 mg/kg
activity of proglumide in cerulein pancreatitis ([1]; in words): also active but at considerably higher doses
Antispastic activity in colon, EXPERIMENT 1 (colon of rabbits; 25 mg/kg i.v.): -33.7
Antispastic activity in colon, EXPERIMENT 2 (colon of rabbits; 25 mg/kg i.v.): 0
Antispastic activity in colon, EXPERIMENT 1 (colon of rabbits; 50 mg/kg i.v.): -38.1
Antispastic activity in colon, EXPERIMENT 2 (colon of rabbits; 50 mg/kg i.v.): -16.1
Antispastic activity in colon, EXPERIMENT 1 (colon of rabbits; 100 mg/kg i.v.): -64.4
Antispastic activity in colon, EXPERIMENT 2 (colon of rabbits; 100 mg/kg i.v.): -43.1
ED50 (colon of rabbits; Oryctolagus cuniculus, iv): 92.6 mg/kg
ED50 (guinea pig gall bladders): 70.5 mg/kg
LD50 (in vivo): 2400 mg/kg
selectivity ratio (in vivo): 34
AMYLASE IN THE SERUM ([2]; 200 mg/kg i.p. + taurocholate): 14.5 U/ml
INHIBITION OF AMYLASE INCREASE ([2]; 200 mg/kg i.p. + taurocholate): 45.5%
INHIBITION OF WEIGHT INCREASE ([2]; 200 mg/kg i.p. + taurocholate): 21.4%
RATIO WEIGHT OF PANCREAS / ANIMAL WEIGHT ([2]; 200 mg/kg i.p. + taurocholate): 0.49%
AMYLASE IN THE SERUM ([2]; 400 mg/kg i.p. + taurocholate): 9.1 U/ml
INHIBITION OF AMYLASE INCREASE ([2]; 400 mg/kg i.p. + taurocholate): 89.4%
INHIBITION OF WEIGHT INCREASE ([2]; 400 mg/kg i.p. + taurocholate): 42.8%
RATIO WEIGHT OF PANCREAS / ANIMAL WEIGHT ([2]; 400 mg/kg i.p. + taurocholate): 0.46%
ED50 ([2]; read-out: ED50, inhibition of amylase increase): 222 mg/kg
ED50 ([2]; read-out: ED50, inhibition of weight increase): 467 mg/kg

— patent publication US4769389A, “Oxygenated-alkyl derivatives of glutamic and aspartic acids with antagonistic activity to bio-active polypeptides and a method for their preparation” (priority 1985, dated 1988)
